Our source for the melting point values is US7166738B2, “Non-nucleoside reverse transcriptase inhibitors” (Roche Palo Alto LLC, priority 2004, dated 2007).

On to `COc1ccc(CC(=O)Nc2ccc(S(N)(=O)=O)cc2)cc1Oc1cc(Cl)cc(C#N)c1` [Compound I-57, 2-[3-(3-Chloro-5-cyano-phenoxy)-4-methoxy-phenyl]-N-(4-sulfamoyl-phenyl)-acetamide], for which the melting point lay in the range of 218.3 to 221.4 °C.
In turn, `Cc1cc(N2CC[S+]([O-])CC2)ccc1NC(=O)Cc1ccc(C)c(Oc2cc(Cl)cc(C#N)c2)c1` [Compound I-160, 2-[3-(3-Chloro-5-cyano-phenoxy)-4-methyl-phenyl]-N-[2-methyl-4-(1-oxo-1λ^4-thiomorpholin-4-yl)-phenyl]-acetamide] yielded a melting point of 181.3 to 182.1 °C.
Then `Cc1cc(S(N)(=O)=O)ccc1NC(=O)Cc1ccc(C)c(Oc2cc(C#N)cc(C(F)F)c2)c1F` [Compound I-85, 2-[3-(3-Cyano-5-difluoromethyl-phenoxy)-2-fluoro-4-methyl-phenyl]-N-(2-methyl-4-sulfamoyl-phenyl)-acetamide], with 218 to 220.4 °C.
For the molecule `CCc1ccc(CC(=O)Nc2ccc(S(N)(=O)=O)cc2)cc1Oc1cc(C#N)cc(F)c1Cl` [Compound I-49, 2-[3-(2-Chloro-5-cyano-3-fluoro-phenoxy)-4-ethyl-phenyl]-N-(4-sulfamoyl-phenyl)-acetamide], the melting point was in the range of 167.9 to 170.5 °C.
Then `Cc1ccc(CC(=O)Nc2ccc(S(N)(=O)=O)cc2Cl)cc1Oc1cc(Cl)cc(C#N)c1` [Compound I-123, 2-[3-(3-Chloro-5-cyano-phenoxy)-4-methyl-phenyl]-N-(2-chloro-4-sulfamoyl-phenyl)-acetamide], with 194 to 194.9 °C; and `COCCC(=O)NS(=O)(=O)c1ccc(NC(=O)Cc2ccc(Cl)c(Oc3cc(Cl)cc(C#N)c3)c2F)c(Cl)c1.[Na]`, with 133.1 to 140.7 °C.
Then `Cc1cc(S(=O)(=O)CCC#N)ccc1NC(=O)Cc1ccc(C)c(Oc2cc(Cl)cc(C#N)c2)c1` [Compound I-137, 2-[3-(3-Chloro-5-cyano-phenoxy)-4-methyl-phenyl]-N-[4-(2-cyano-ethanesulfonyl)-2-methyl-phenyl]-acetamide], with 186.1 to 188 °C.
As for `Cc1cc(OC[C@@H](O)CO)ccc1NC(=O)Cc1ccc(C)c(Oc2cc(Cl)cc(C#N)c2)c1` [Compound I-150, 2-[3-(3-Chloro-5-cyano-phenoxy)-4-methyl-phenyl]-N-[4-((S)-2,3-dihydroxy-propoxy)-2-methyl-phenyl]-acetamide], the melting point lay within 137.5 to 138.4 °C.
In the case of `Cc1cc(S(=O)(=O)CCC(=O)O)ccc1NC(=O)Cc1ccc(C)c(Oc2cc(Cl)cc(C#N)c2)c1` [Compound I-125, 3-(4-{2-[3-(3-Chloro-5-cyano-phenoxy)-4-methyl-phenyl]-acetylamino}-3-methyl-benzenesulfonyl)-propionic acid], the melting point lay in the range of 74.3 to 76.5 °C.
In the case of `CCc1ccc(CC(=O)Nc2ccccc2Cl)cc1Oc1cc(Cl)ccc1Br` [Compound I-16, 2-[3-(2-Bromo-5-chloro-phenoxy)-4-ethyl-phenyl]-N-(2-chloro-phenyl)-acetamide] it was 154 to 155.5 °C; in that of `Cl.N#Cc1cc(Cl)cc(Oc2c(Cl)ccc(CC(=O)Nc3ccc(S(=O)(=O)NC(=O)CN4CCOCC4)cc3Cl)c2F)c1`, 223.3 to 225 °C.
Then `CCc1ccc(CC(=O)Nc2ccc(S(N)(=O)=O)cc2)cc1Oc1cc(Cl)cc(Br)c1Cl` [Compound I-35, 2-[3-(3-Bromo-2,5-dichloro-phenoxy)-4-ethyl-phenyl]-N-(4-sulfamoyl-phenyl)-acetamide], with 206.9 to 209.9 °C; and `Cc1ccc(CC(=O)Nc2ccc(S(N)(=O)=O)cc2)cc1Oc1cc(F)cc(C#N)c1` [Compound I-11, 2-[3-(3-Cyano-5-fluoro-phenoxy)-4-methyl-phenyl]-N-(4-sulfamoyl-phenyl)-acetamide], with 165.8 to 168.1 °C.

As usually defined, the melting point is the temperature of the solid-liquid transition.
